The values that follow come from PubChem BioAssay (NCI).

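In this assay, cells in 96-well plates receive the compound at five concentrations for 48 hours. Endpoints are linearly interpolated between the surrounding concentrations. GI50 = concentration required for 50% inhibition of growth. TGI: total growth inhibition.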

Common to all, as to assay: DTP human tumour cell line panel, 48 h
Assay [1] concerns A549 NSCLC.
The subject of assay [2] is COLO 205 colon.
In assay [3] the test system is HCT-15 colon.
Assay [4] concerns MDA-MB-435.
Assay [5] deals with MOLT-4 leukemia.
Assay [6] deals with NCI/ADR-RES ovarian.
Assay [7] has as its system OVCAR-5 ovarian.

With `CC1(C)CCc2c(c(N=Nc3ccccc3F)c3ccccc3c2O)O1`, the GI50 in assay [1] was 34 µM; in assay [2], more than 100 µM; in assay [3] it was 78.3 µM; in assay [4], more than 100 µM; in assay [5], more than 100 µM; in assay [6], 20.1 µM. For the same compound, in assay [7], the GI50 is 73.7 µM. For the same compound, the TGI in assay [1] was more than 100 µM; in assay [2], more than 100 µM; in assay [3], more than 100 µM; in assay [4] it was more than 100 µM; in assay [5], more than 100 µM; in assay [6], 47.1 µM. This compound returned a TGI in assay [7] of more than 100 µM.
For `COc1cc2c(cc1O)c(=O)n(CCN(C)C)c1c3cc4c(cc3ncc21)OCO4`, the GI50 in assay [1] is 0.0356 µM; in assay [2], 1.52 µM; in assay [3], 0.0284 µM; in assay [4], 0.0195 µM; in assay [5], less than 0.01 µM; in assay [6], less than 0.01 µM. Besides, the GI50 in assay [7] was 0.325 µM. For the same compound, the TGI was 0.594 µM in assay [1]; 15.2 µM in assay [2]; 0.258 µM in assay [4]; 0.0271 µM in assay [5]; 0.526 µM in assay [6]; 2.82 µM in assay [7].
As for `COc1cc2c(/C=C3/C(=O)Nc4ccc(O)cc43)c(Cl)n(Cc3cc(OC)c(OC)c(OC)c3)c2cc1C`, the GI50 in assay [1] is 3.45 µM; in assay [2], 2.61 µM; in assay [3], 1.81 µM; in assay [4], 0.328 µM; in assay [5] it was 2.34 µM; in assay [6], 3.41 µM. Also, in assay [7], the GI50 is 15.6 µM. The TGI in assay [1] was more than 100 µM; in assay [2], more than 100 µM; in assay [3], more than 34.1 µM; in assay [5] it was more than 21.9 µM; in assay [6] it was more than 100 µM; in assay [7], more than 100 µM.
Consider `COc1ccc(CNCCCN2C(=O)c3ccc4c5c(ccc(c35)C2=O)C(=O)N(CCCNCc2ccc(OC)c(OC)c2OC)C4=O)c(OC)c1OC`, for which the GI50 in assay [1] is 0.103 µM; in assay [2], 0.0524 µM; in assay [3] it was 0.244 µM; in assay [4], 0.0925 µM; in assay [5] it was 0.121 µM; in assay [6] it was 1.01 µM. In addition, in assay [7], the GI50 is 0.108 µM. In addition, the TGI came out at 0.231 µM in assay [1]; 0.12 µM in assay [2]; 0.952 µM in assay [3]; 0.177 µM in assay [4]; 0.291 µM in assay [5]; 3.01 µM in assay [6]. For the same compound, the TGI in assay [7] is 0.25 µM.
Consider `Cc1c[nH]c(=O)n(Cc2nnc(CCC(=O)c3nc4ccccc4[nH]3)o2)c1=O`, for which the GI50 in assay [1] is 0.475 µM; in assay [2], 0.299 µM; in assay [3], 8.93 µM; in assay [5] it was 1.69 µM; in assay [6], 14.7 µM; in assay [7], 0.879 µM. For the same compound, the TGI was more than 100 µM in assay [1]; 1.04 µM in assay [2]; more than 100 µM in assay [3]; more than 100 µM in assay [5]; 63.8 µM in assay [6]; more than 100 µM in assay [7].
For the compound `OCCN(CCO)c1nc(N2CCCCC2)c2nc(N(CCO)CCO)nc(N3CCCCC3)c2n1`, the total growth inhibition concentration (TGI) in assay [1] was more than 100 µM; in assay [2] it was more than 100 µM; in assay [3] it was more than 100 µM; in assay [4] it was more than 100 µM; in assay [5], 56.5 µM; in assay [6], more than 100 µM. The total growth inhibition concentration (TGI) in assay [7] was more than 100 µM.
For `CC(=O)Nc1ccc(OC(C)=O)cc1`, the GI50 in assay [1] is less than 0.01 µM; in assay [2], less than 0.01 µM; in assay [3], less than 0.01 µM; in assay [4] it was less than 0.01 µM; in assay [5] it was less than 0.01 µM; in assay [6], less than 0.0105 µM. The GI50 in assay [7] is less than 0.01 µM. For the same compound, the TGI is 30.8 µM in assay [1]; 0.01 µM in assay [2]; 16.6 µM in assay [3]; less than 0.01 µM in assay [4]; 3.79 µM in assay [5]; more than 7.41 µM in assay [6]. This compound also showed a total growth inhibition concentration (TGI) in assay [7] of more than 100 µM.
Consider `Cc1ccc2[nH]c(O)c(N=Nc3ccccc3[N+](=O)[O-])c2c1`, for which the TGI is more than 100 µM in assay [1]; more than 100 µM in assay [2]; more than 100 µM in assay [3]; more than 100 µM in assay [4]; more than 100 µM in assay [5]; more than 40.2 µM in assay [6]. Moreover, the TGI in assay [7] is more than 84.3 µM.
In the case of `C#CCOC(=O)/C=C/C(=O)Oc1ccc2c(C)cc(=O)oc2c1`, the GI50 in assay [1], in assay [2], in assay [3], in assay [4], in assay [5] and in assay [6] was more than 100 µM throughout. The GI50 in assay [7] is more than 100 µM. In addition, the TGI in assay [1], in assay [2], in assay [3], in assay [4], in assay [5] and in assay [6] was more than 100 µM in each case. The compound further registered a concentration for total growth inhibition (TGI) in assay [7] of more than 100 µM.
`Cc1ccc2[nH]c(C(=O)NN3C(=O)C(C)SC34CCC(C)CC4)c(-c3ccccc3)c2c1` (configuration not stated): the GI50 is 14.3 µM in assay [1]; 17.8 µM in assay [2]; 19.4 µM in assay [3]; 16.5 µM in assay [4]; 7.86 µM in assay [5]; 17 µM in assay [7]. For the same compound, the TGI in assay [1] came out at 31.8 µM; in assay [2], 41.1 µM; in assay [3], 53.1 µM; in assay [4], 35.4 µM; in assay [5], 32.2 µM; in assay [7], 34.6 µM.
For the compound `COc1ccc2nc3c(cc2c1)C(=O)CC(c1ccccc1)C3` (configuration not stated), the GI50 in assay [1] was 2.05 µM; in assay [2] it was 0.732 µM; in assay [3] it was 2.19 µM; in assay [4], 0.137 µM; in assay [5], 0.364 µM; in assay [6], 0.359 µM. In addition, in assay [7], the GI50 is 6.83 µM. For the same compound, the TGI is more than 100 µM in assay [1]; more than 100 µM in assay [2]; more than 100 µM in assay [3]; 0.38 µM in assay [4]; more than 100 µM in assay [5]; more than 100 µM in assay [6]. In assay [7], this compound gave a TGI of more than 100 µM.
Regarding `O=c1cc(-c2ccccc2)oc2c1ccc1ccccc12`, the GI50 is 23.8 µM in assay [1]; 24.2 µM in assay [2]; 30 µM in assay [3]; 30 µM in assay [4]; 23.5 µM in assay [5]; 30.5 µM in assay [6]. Moreover, the GI50 in assay [7] was 50.7 µM. Besides, the TGI in assay [1] was more than 100 µM; in assay [2] it was more than 100 µM; in assay [3], more than 100 µM; in assay [4] it was more than 100 µM; in assay [5] it was 51.5 µM; in assay [6], more than 100 µM. This compound showed a TGI in assay [7] of more than 100 µM.
Regarding `NNc1nc2ccccc2o1`, the TGI in assay [1], in assay [2], in assay [3], in assay [4], in assay [5] and in assay [6] was more than 100 µM each time. The total growth inhibition concentration (TGI) in assay [7] is more than 100 µM.
With `C=CCOc1ccc(N)c([N+](=O)[O-])c1`, the TGI in assay [1], in assay [2], in assay [3], in assay [4], in assay [5] and in assay [6] was more than 100 µM each time. Moreover, in assay [7], the TGI was more than 100 µM.
`O=C(c1ccccc1)C1OC1C(=O)c1ccccc1` (configuration not stated): the GI50 in assay [1] is 4.17 µM; in assay [2], 4.94 µM; in assay [3] it was 2.61 µM; in assay [4] it was 2.86 µM; in assay [6] it was 1.88 µM; in assay [7], 3.86 µM. In addition, the TGI is 39.2 µM in assay [1]; 15.4 µM in assay [2]; 12.2 µM in assay [3]; more than 100 µM in assay [4]; more than 100 µM in assay [6]; 25.2 µM in assay [7].
For `CCn1c(SCC(=O)Nc2cc(C(F)(F)F)ccc2Cl)nc2ccccc2c1=O`, the GI50 in assay [2] was more than 100 µM; in assay [3], 8.46 µM; in assay [4], more than 100 µM; in assay [5] it was more than 100 µM; in assay [6] it was 32.8 µM; in assay [7], 61.9 µM. In addition, the TGI in assay [2], in assay [3], in assay [4], in assay [5], in assay [6] and in assay [7] was more than 100 µM throughout.
In the case of `COc1ccc2c(c1)C(=O)c1c-2c(N2CCN(C(=O)CCNCCNCCN)CC2)nc2ccccc12`, the GI50 in assay [1] is 9.51 µM; in assay [2], 2.54 µM; in assay [4] it was 6.86 µM; in assay [5] it was 1 µM. In addition, the TGI in assay [1] came out at 29.4 µM; in assay [2], 6.34 µM; in assay [4], 30 µM; in assay [5], 2.18 µM.
Take `C1C[OH+]CCNCC[OH+]CC[OH+]CCN1.N.[Cl-].[Pt+4]`: the GI50 in assay [1] was 51.3 µM; in assay [2], 18.9 µM; in assay [3], 40.4 µM; in assay [5], 59.8 µM. The total growth inhibition concentration (TGI) in assay [1] is more than 100 µM; in assay [2] it was 47.7 µM; in assay [3], more than 100 µM; in assay [5], more than 100 µM.
